Data reported in ChEMBL document CHEMBL3399986, “Rapid 'one-pot' synthesis of a novel benzimidazole-5-carboxylate and its hydrazone derivatives as potential anti-inflammatory and antimicrobial agents” (Bioorg Med Chem Lett, 2015).
Values after ≈ are worked out from the molar mass of the structure shown.

Legend:
[1] = tested on: Candida tropicalis; experiment: Antifungal activity against Candida tropicalis MTCC 183 assessed as zone of inhibition at 5 mg/ml after 24 hrs by agar well diffusion method; format: functional; conditions: MTCC 183, 24 h, read-out: IZ
[2] = tested on: Penicillium chrysogenum; experiment: Antifungal activity against Penicillium notatum after 48 hrs by broth dilution method; format: functional
[3] = tested on: MDA-MB-231; experiment: Cytotoxicity against human MDA-MB-231 cells assessed as cell death at 5 ug/ml after 48 hrs by MTT assay; format: cell-based; conditions: mda-mb-231, 48 h
[4] = tested on: Aspergillus niger; experiment: Antifungal activity against Aspergillus niger MTCC 282 after 48 hrs by broth dilution method; format: functional; conditions: MTCC 282, 48 h
[5] = tested on: Staphylococcus aureus; experiment: Antimicrobial activity against Staphylococcus aureus MTCC 3160 assessed as zone of inhibition at 5 mg/ml after 24 hrs by agar well diffusion method; format: functional; conditions: MTCC 3160, 24 h, read-out: IZ
[6] = tested on: Staphylococcus aureus; experiment: Antimicrobial activity against Staphylococcus aureus MTCC 3160 after 24 hrs by broth dilution method; format: functional; conditions: MTCC 3160, 24 h
[7] = tested on: Klebsiella pneumoniae; experiment: Antimicrobial activity against Klebsiella pneumoniae MTCC 3384 assessed as zone of inhibition at 5 mg/ml after 24 hrs by agar well diffusion method; format: functional; conditions: MTCC 3384, 24 h, read-out: IZ
[8] = tested on: Candida tropicalis; experiment: Antifungal activity against Candida tropicalis MTCC 183 after 48 hrs by broth dilution method; format: functional; conditions: MTCC 183, 48 h
[9] = tested on: Candida albicans; experiment: Antifungal activity against Candida albicans MTCC 461 after 48 hrs by broth dilution method; format: functional; conditions: MTCC 461, 48 h
[10] = tested on: Escherichia coli; experiment: Antimicrobial activity against Escherichia coli MTCC 4351 after 24 hrs by broth dilution method; format: functional; conditions: MTCC 4351, 24 h
[11] = tested on: Bacillus subtilis; experiment: Antimicrobial activity against Bacillus subtilis MTCC 441 after 24 hrs by broth dilution method; format: functional; conditions: MTCC 441, 24 h
[12] = tested on: Aspergillus niger; experiment: Antifungal activity against Aspergillus niger MTCC 282 assessed as zone of inhibition at 5 mg/ml after 24 hrs by agar well diffusion method; format: functional; conditions: MTCC 282, 24 h, read-out: IZ
[13] = tested on: MDA-MB-231; experiment: Cytotoxicity against human MDA-MB-231 cells assessed as cell death at 2.5 ug/ml after 48 hrs by MTT assay; format: cell-based; conditions: mda-mb-231, 48 h
[14] = tested on: MDA-MB-231; experiment: Cytotoxicity against human MDA-MB-231 cells assessed as cell death at 1 ug/ml after 48 hrs by MTT assay; format: cell-based; conditions: mda-mb-231, 48 h
[15] = tested on: Escherichia coli; experiment: Antimicrobial activity against Escherichia coli MTCC 4351 assessed as zone of inhibition at 5 mg/ml after 24 hrs by agar well diffusion method; format: functional; conditions: MTCC 4351, 24 h, read-out: IZ
[16] = tested on: Bacillus subtilis; experiment: Antimicrobial activity against Bacillus subtilis MTCC 441 assessed as zone of inhibition at 5 mg/ml after 24 hrs by agar well diffusion method; format: functional; conditions: MTCC 441, 24 h, read-out: IZ
[17] = tested on: Penicillium chrysogenum; experiment: Antifungal activity against Penicillium notatum assessed as zone of inhibition at 5 mg/ml after 24 hrs by agar well diffusion method; format: functional; conditions: read-out: IZ
[18] = tested on: Rattus norvegicus; experiment: Antiinflammatory activity in rat assessed as inhibition of carrageenan-induced paw edema administered 30 mins prior to carrageenan challenge measured after 3 hrs relative to control; format: functional
[19] = tested on: Candida albicans; experiment: Antifungal activity against Candida albicans MTCC 461 assessed as zone of inhibition at 5 mg/ml after 24 hrs by agar well diffusion method; format: functional; conditions: MTCC 461, 24 h, read-out: IZ
[20] = tested on: Klebsiella pneumoniae; experiment: Antimicrobial activity against Klebsiella pneumoniae MTCC 3384 after 24 hrs by broth dilution method; format: functional; conditions: MTCC 3384, 24 h
[21] = tested on: Rattus norvegicus; experiment: Antiinflammatory activity in rat assessed as inhibition of carrageenan-induced paw edema administered 30 mins prior to carrageenan challenge measured after 2 hrs relative to control; format: functional
[22] = tested on: MDA-MB-231; experiment: Cytotoxicity against human MDA-MB-231 cells assessed as cell death at 10 ug/ml after 48 hrs by MTT assay; format: cell-based; conditions: mda-mb-231, 48 h
[23] = tested on: Rattus norvegicus; experiment: Antiinflammatory activity in rat assessed as inhibition of carrageenan-induced paw edema administered 30 mins prior to carrageenan challenge measured after 1 hr relative to control; format: functional

Row | MIC [2] | MIC [4] | MIC [6] | MIC [8] | MIC [9] | MIC [10] | MIC [11] | MIC [20] | SMILES | zone of inhibition at 5000 µg/mL [1] | Activity [3] | zone of inhibition at 5000 µg/mL [5] | zone of inhibition at 5000 µg/mL [7] | zone of inhibition at 5000 µg/mL [12] | zone of inhibition at 5000 µg/mL [15] | zone of inhibition at 5000 µg/mL [16] | zone of inhibition at 5000 µg/mL [17] | inhibition (INH) [18] | zone of inhibition at 5000 µg/mL [19] | inhibition (INH) [21] | inhibition (INH) [23] | other results
1 | 12.5 µg/mL (≈ 25.7 µM) | 6.25 µg/mL (≈ 12.9 µM) | 25 µg/mL (≈ 51.5 µM) | 6.25 µg/mL (≈ 12.9 µM) | 12.5 µg/mL (≈ 25.7 µM) | 12.5 µg/mL (≈ 25.7 µM) | 25 µg/mL (≈ 51.5 µM) | 25 µg/mL (≈ 51.5 µM) | CCCn1c(-c2ccc(Cl)cc2Cl)nc2cc(C(=O)N/N=C/c3ccccc3Cl)ccc21 | 18 mm | 1.61% | 15 mm | 17 mm | 21 mm | 18 mm | 16 mm | 15 mm | 71.97% | 17 mm | 70.62% | 65.55% | Activity [13]: -0.44%; Activity [14]: -2.05%; Activity [22]: 2.78%
2 | 25 µg/mL (≈ 51.5 µM) | 12.5 µg/mL (≈ 25.7 µM) | 25 µg/mL (≈ 51.5 µM) | 25 µg/mL (≈ 51.5 µM) | 100 µg/mL (≈ 206 µM) | 6.25 µg/mL (≈ 12.9 µM) | 25 µg/mL (≈ 51.5 µM) | 50 µg/mL (≈ 103 µM) | CCCn1c(-c2ccc(Cl)cc2Cl)nc2cc(C(=O)N/N=C/c3cccc(Cl)c3)ccc21 | 16 mm |  | 15 mm | 14 mm | 18 mm | 21 mm | 15 mm | 14 mm | 43.35% | 10 mm | 45.73% | 49.25% | 
3 | 25 µg/mL (≈ 51.5 µM) | 25 µg/mL (≈ 51.5 µM) | 50 µg/mL (≈ 103 µM) | 50 µg/mL (≈ 103 µM) | 12.5 µg/mL (≈ 25.7 µM) | 50 µg/mL (≈ 103 µM) | 12.5 µg/mL (≈ 25.7 µM) | 25 µg/mL (≈ 51.5 µM) | CCCn1c(-c2ccc(Cl)cc2Cl)nc2cc(C(=O)N/N=C/c3ccc(Cl)cc3)ccc21 | 14 mm |  | 12 mm | 17 mm | 17 mm | 10 mm | 18 mm | 13 mm | 46.56% | 17 mm | 53.56% | 56.85% | 
4 | 12.5 µg/mL (≈ 26.6 µM) | 3.12 µg/mL (≈ 6.65 µM) | 12.5 µg/mL (≈ 26.6 µM) | 6.25 µg/mL (≈ 13.3 µM) | 6.25 µg/mL (≈ 13.3 µM) | 6.25 µg/mL (≈ 13.3 µM) | 6.25 µg/mL (≈ 13.3 µM) | 12.5 µg/mL (≈ 26.6 µM) | CCCn1c(-c2ccc(Cl)cc2Cl)nc2cc(C(=O)N/N=C/c3ccccc3F)ccc21 | 18 mm |  | 17 mm | 18 mm | 22 mm | 20 mm | 19 mm | 16 mm | 68.9% | 19 mm | 67.78% | 60.55% | 
5 | 25 µg/mL (≈ 53.3 µM) | 6.25 µg/mL (≈ 13.3 µM) | 6.25 µg/mL (≈ 13.3 µM) | 6.25 µg/mL (≈ 13.3 µM) | 6.25 µg/mL (≈ 13.3 µM) | 6.25 µg/mL (≈ 13.3 µM) | 6.25 µg/mL (≈ 13.3 µM) | 6.25 µg/mL (≈ 13.3 µM) | CCCn1c(-c2ccc(Cl)cc2Cl)nc2cc(C(=O)N/N=C/c3ccc(F)cc3)ccc21 | 18 mm |  | 20 mm | 19 mm | 20 mm | 20 mm | 19 mm | 15 mm | 50.36% | 18 mm | 53.14% | 61.48% | 
6 | 25 µg/mL (≈ 47.1 µM) | 3.12 µg/mL (≈ 5.88 µM) | 6.25 µg/mL (≈ 11.8 µM) | 12.5 µg/mL (≈ 23.6 µM) | 12.5 µg/mL (≈ 23.6 µM) | 12.5 µg/mL (≈ 23.6 µM) | 50 µg/mL (≈ 94.3 µM) | 25 µg/mL (≈ 47.1 µM) | CCCn1c(-c2ccc(Cl)cc2Cl)nc2cc(C(=O)N/N=C/c3cccc(Br)c3)ccc21 | 16 mm | -2.12% | 18 mm | 17 mm | 22 mm | 18 mm | 12 mm | 15 mm | 72.11% | 16 mm | 58.04% | 65.18% | Activity [13]: -1.17%; Activity [14]: -12.5%; Activity [22]: 7.46%
7 | 50 µg/mL (≈ 94.3 µM) | 6.25 µg/mL (≈ 11.8 µM) | 12.5 µg/mL (≈ 23.6 µM) | 12.5 µg/mL (≈ 23.6 µM) | 25 µg/mL (≈ 47.1 µM) | 3.12 µg/mL (≈ 5.88 µM) | 6.25 µg/mL (≈ 11.8 µM) | 25 µg/mL (≈ 47.1 µM) | CCCn1c(-c2ccc(Cl)cc2Cl)nc2cc(C(=O)N/N=C/c3ccc(Br)cc3)ccc21 | 16 mm |  | 17 mm | 17 mm | 20 mm | 22 mm | 19 mm | 14 mm | 69.05% | 15 mm | 69.51% | 65.55% | 
8 | 6.25 µg/mL (≈ 11.4 µM) | 3.12 µg/mL (≈ 5.71 µM) | 3.12 µg/mL (≈ 5.71 µM) | 6.25 µg/mL (≈ 11.4 µM) | 3.12 µg/mL (≈ 5.71 µM) | 3.12 µg/mL (≈ 5.71 µM) | 3.12 µg/mL (≈ 5.71 µM) | 6.25 µg/mL (≈ 11.4 µM) | CCCn1c(-c2ccc(Cl)cc2Cl)nc2cc(C(=O)N/N=C/c3cc(Br)ccc3O)ccc21 | 18 mm | 0.07% | 22 mm | 20 mm | 22 mm | 22 mm | 22 mm | 18 mm | 45.98% | 21 mm | 47.41% | 44.81% | Activity [13]: -6.21%; Activity [14]: -6.58%; Activity [22]: 4.46%
